Source: the supplement of paper PMC13380429

What was measured:
[1] = tested on: A549-ACE2 infected with SARS-CoV-2; assay: cell count relative to DMSO; higher = less toxic; conditions: 24 h
Caco-2 [2] = assay: cell viability relative to DMSO; higher = less toxic; conditions: 72 h
Calu-3 [3] = assay: as above; conditions: 72 h
HepG2 [4] = assay: as above; conditions: 72 h
U2OS [5] = assay: as above; conditions: 72 h
Vero E6 [6] = assay: as above; conditions: 72 h
[7] = tested on: A549-ACE2 infected with SARS-CoV-2; assay: SARS-CoV-2 infection rate relative to DMSO; higher = more infection; conditions: 24 h
[8] = tested on: A549-ACE2 infected with SARS-CoV-2; assay: morphology score (similarity to uninfected cells); higher = more like uninfected cells; conditions: 24 h
Caco-2 [9] = assay: relative viability EC50 (midpoint between 100% and the lowest measured viability); higher = less toxic; conditions: 72 h
Calu-3 [10] = assay: as above; conditions: 72 h
HepG2 [11] = assay: as above; conditions: 72 h
U2OS [12] = assay: as above; conditions: 72 h
Vero E6 [13] = assay: as above; conditions: 72 h
Caco-2 [14] = assay: drug sensitivity score (DSS) for viability; higher = more toxic; extreme values may be limits of the assay; conditions: 72 h
Calu-3 [15] = assay: as above; conditions: 72 h
HepG2 [16] = assay: as above; conditions: 72 h
U2OS [17] = assay: as above; conditions: 72 h
Vero E6 [18] = assay: as above; conditions: 72 h

CC(C)C[C@H](NC(=O)[C@H](Cc1ccccc1)NC(=O)c1cnccn1)B(O)O [bortezomib]
Conditions	SARS-CoV-2 infection rate, [7] [%]	cell count, [1] [%]	cell viability, Caco-2 [2] [%]	cell viability, Calu-3 [3] [%]	cell viability, HepG2 [4] [%]	cell viability, U2OS [5] [%]	cell viability, Vero E6 [6] [%]	morphology score, [8]
1 nM	–	–	104	103	122	104	111	–
10 nM	–	–	20.1	26.4	59.1	63.9	66.4	–
100 nM	–	–	4.1	4.4	1.8	-0.1	3	–
0.3 µM	45	57	–	–	–	–	–	0.26
1000 nM	–	–	5.9	5	-0.2	-0.4	0.2	–
3 µM	21	30	–	–	–	–	–	0.33
10 µM	16	27	–	–	–	–	–	0.29
10000 nM	–	–	6.2	2.4	-0.3	-0.4	0.1	–
30 µM	23	24	–	–	–	–	–	0.23

Conditions	drug sensitivity score	relative viability EC50 [µM]
Caco-2 [9]	–	0.0053
Caco-2 [14]	38.6	–
Calu-3 [10]	–	0.0064
Calu-3 [15]	38.3	–
HepG2 [11]	–	0.0116
HepG2 [16]	35.9	–
U2OS [12]	–	0.0126
U2OS [17]	35.5	–
Vero E6 [13]	–	0.0132
Vero E6 [18]	35.2	–

COc1ccc(C(=O)/C(Cc2cc(OC)c(OC)c(OC)c2)=C(\C(=O)O)c2ccc3c(c2)OCO3)cc1
Conditions	SARS-CoV-2 infection rate, [7] [%]	cell count, [1] [%]	cell viability, Calu-3 [3] [%]	cell viability, HepG2 [4] [%]	cell viability, U2OS [5] [%]	cell viability, Vero E6 [6] [%]	morphology score, [8]
1 nM	–	–	91.9	102	98.9	97.1	–
10 nM	–	–	87.6	93.9	94.9	101	–
100 nM	–	–	101	95.3	97.7	104	–
0.3 µM	101	98	–	–	–	–	-0.18
1000 nM	–	–	101	95.2	96.2	109	–
3 µM	95	104	–	–	–	–	0.12
10 µM	42	82	–	–	–	–	0.6
10000 nM	–	–	94.1	65.2	57.6	104	–
30 µM	16	22	–	–	–	–	0.36

Conditions	drug sensitivity score	relative viability EC50 [µM]
Calu-3 [10]	–	> 10
Calu-3 [15]	0	–
HepG2 [16]	2.4	–
U2OS [17]	2.8	–
Vero E6 [13]	–	> 10
Vero E6 [18]	0	–

O=C1OC(CN2CCOCC2)CN1/N=C/c1ccc([N+](=O)[O-])o1 (stereo not given) [furaltadone]
cell viability [%]
Conditions	Caco-2 [2]	Calu-3 [3]	HepG2 [4]	U2OS [5]	Vero E6 [6]
1 nM	96.5	95.7	96.4	99.8	108
10 nM	87	93.6	93.3	99.3	94
100 nM	79.7	94.4	92.8	95.4	103
1000 nM	99.8	103	81.7	106	109
10000 nM	82.3	104	82.5	95.1	102

Conditions	drug sensitivity score	relative viability EC50 [µM]
Caco-2 [9]	–	> 10
Caco-2 [14]	0	–
Calu-3 [10]	–	> 10
Calu-3 [15]	0	–
HepG2 [11]	–	> 10
HepG2 [16]	2.1	–
U2OS [12]	–	> 10
U2OS [17]	0	–
Vero E6 [13]	–	> 10
Vero E6 [18]	0	–

N[C@@H](Cc1ccc(O)cc1)C(=O)NCC(=O)NCC(=O)O [IMREG-1]
cell viability [%]
Conditions	Caco-2 [2]	Calu-3 [3]	HepG2 [4]	U2OS [5]	Vero E6 [6]
1 nM	98.2	102	101	104	90.7
10 nM	91.6	99.5	102	95	96.8
100 nM	103	101	92	97.6	92.6
1000 nM	91.3	98.5	103	93.5	97.9
10000 nM	97.1	108	86.8	102	89.8

Conditions	drug sensitivity score	relative viability EC50 [µM]
Caco-2 [9]	–	> 10
Caco-2 [14]	0	–
Calu-3 [10]	–	> 10
Calu-3 [15]	0	–
HepG2 [11]	–	> 10
HepG2 [16]	0.1	–
U2OS [12]	–	> 10
U2OS [17]	0	–
Vero E6 [13]	–	> 10
Vero E6 [18]	0	–

COc1cc(C(=O)NS(=O)(=O)c2ccccc2C)ccc1Cc1cn(C)c2ccc(NC(=O)OC3CCCC3)cc12 [zafirlukast]
cell viability [%]
Conditions	Caco-2 [2]	Calu-3 [3]	HepG2 [4]	U2OS [5]	Vero E6 [6]
1 nM	92.3	96.9	104	92.7	96.2
10 nM	104	101	101	98.4	92.5
100 nM	105	97.2	109	103	91.2
1000 nM	97.8	100	94.6	105	94.2
10000 nM	99.2	110	96.6	100	94.6

Conditions	drug sensitivity score	relative viability EC50 [µM]
Caco-2 [9]	–	> 10
Caco-2 [14]	0	–
Calu-3 [10]	–	> 10
Calu-3 [15]	0	–
HepG2 [11]	–	> 10
HepG2 [16]	0	–
U2OS [12]	–	> 10
U2OS [17]	0	–
Vero E6 [13]	–	> 10
Vero E6 [18]	0	–

CC(CCc1ccccc1)NCC(O)c1ccc(O)c(C(N)=O)c1 (stereo not given) [labetalol]
cell viability [%]
Conditions	Caco-2 [2]	Calu-3 [3]	HepG2 [4]	U2OS [5]	Vero E6 [6]
1 nM	88.3	98.7	105	97.6	97.3
10 nM	85.3	107	100	105	97.2
100 nM	89.4	94.8	102	98.6	96.3
1000 nM	91.2	103	90.5	101	92
10000 nM	110	101	99.6	99.7	103

Conditions	drug sensitivity score	relative viability EC50 [µM]
Caco-2 [9]	–	> 10
Caco-2 [14]	0	–
Calu-3 [10]	–	> 10
Calu-3 [15]	0	–
HepG2 [11]	–	> 10
HepG2 [16]	0	–
U2OS [12]	–	> 10
U2OS [17]	0	–
Vero E6 [13]	–	> 10
Vero E6 [18]	0	–
